Experimental data taken from PMC8071274 (International Journal of Molecular Sciences, 2021).
Where a SMILES comes first, the peptide text is derived from it. Where no end group is shown, it is not given here. The star is where a group is joined. For = O=C*

The molecules below were run on differentiated HL-60 cells. Details: 72 h.
Type: cell-based, human
Experimental: HEK-293 cells (American Type Culture Collection, Manassas, VA, USA) were maintained in DMEM (Thermo Fisher Scientific, Waltham, MA, USA) containing 10% FBS (Thermo Fisher Scientific) in a humidified atmosphere at 5% CO2 and 37 °C. Human acute leukemia-derived HL-60 cells (RIKEN Cell Bank, Ibaraki, Japan) were cultured in RPMI-1640 medium (Thermo Fisher Scientific) containing 10% FBS in a humidified atmosphere at 5% CO2 and 37 °C. HL-60 cells were treated with 500 μM dibutyryl-cAMP (Sigma-Aldrich, St. Louis, MO, USA) for 72 h to differentiate the cells into neutrophilic/granulocytic cells as described elsewhere. The ability of MCT-2-related peptides to activate HL-60 cells differentiated into neutrophilic/granulocytic cells was evaluated by stimulation of β-hexosaminidase secretion from the cells. Briefly, differentiated HL-60 cells were washed 3 times with ice-cold HEPES-buffered Hank’s solution (HBHS; 10 mM HEPES, 136.9 mM NaCl, 5.4 mM KCl, 1.2 mM CaCl2, 0.44 mM KH2PO4, 0.49 mM MgCl2, 0.41 mM MgSO4, 0.34 mM Na2HPO4, 5.5 mM glucose, 4.2 mM NaHCO3, and 0.1% BSA, pH 7.4). The cells were resuspended in HBHS at a density of 5.6 × 10^6 cells/mL, and DNase I (Sigma-Aldrich) and cytochalasin B (Sigma-Aldrich) were each added at a final concentration of 5 μg/mL. The cell suspension in each tube (5.0 × 10^5 cells/90 μL) was preincubated at 37 °C for 10 min and stimulated with 10 μL synthetic peptide solution at 37 °C for 10 min. The inhibitory effects of inhibitors against FPR1 [CysH (Sigma-Aldrich)] and FPR2 [PBP10 (Tocris Bioscience, Bristol, UK)] on β-hexosaminidase release induced by MCT-2 and its derivatives were also evaluated in the differentiated HL-60 cells; each cell suspension prepared as above (90 μL) was transferred to a tube (5.0 × 10^5 cells/tube) with 5 μL inhibitor solution for FPR1 (CysH) or FPR2 (PBP10). Each tube was then preincubated at 37 °C for 10 min and stimulated with 5 μL synthetic peptide solution at 37 °C for 10 min. After stimulation, 200 μL ice-cold reaction quenching buffer (25 mM Tris, 123 mM NaCl, and 2.7 mM KCl, pH 7.4) was added to each cell suspension to stop the reaction. Thereafter, these tubes were centrifuged at 4 °C and 2300× g for 1 min, and each supernatant was transferred into a new tube. β-Hexosaminidase activity in the supernatant was measured as described previously. Briefly, 90 μL supernatant was transferred to each well of a 96-well microtiter plate, and 60 μL of a substrate solution for β-hexosaminidase [10 mM p-nitrophenyl N-acetyl-β-D-glucosaminide (Sigma-Aldrich), 40 mM citrate, and 70 mM NaHPO4, pH 4.5] was added to initiate the enzyme reaction. After incubation of the plate at 37 °C for 1 h, 100 μL of 400 mM glycine (pH 10.7) was added to stop the reaction. The absorbance at 415 nm for the resulting p-nitrophenol and at 490 nm for the reference was measured using a microtiter plate reader (Viento XS; BioTek Instruments, Winooski, VT, USA). The ability of each peptide to induce β-hexosaminidase release was expressed as a percentage of enzyme secretion promoted by 10 μM MCT-2(1–15) that induced the maximum response for the elucidation of full or partial agonists to the activity of MCT-2(1–15) (Figure 2 and Figure 4, Table 2) or a percentage of the total enzyme activity, which was the enzyme activity released after disruption of the cells with 0.05% Triton X-100 (Figure 3).

Which EC50 does the source give for `CC[C@H](C)[C@H](NC(=O)[C@H](C)NC(=O)[C@H](CCCNC(=N)N)NC(=O)[C@H](CCSC)NC(=O)[C@@H]1CCCN1C(=O)[C@@H](NC(=O)[C@H](CCSC)NC=O)[C@@H](C)O)C(=O)N[C@@H](CC(N)=O)C(=O)N1CCC[C@H]1C(=O)N[C@@H](CC(C)C)C(=O)N[C@@H](CCSC)C(=O)N[C@@H](CCCCN)C(=O)N[C@@H](CC(C)C)C(=O)N[C@H](C(=O)N[C@@H](CC(N)=O)C(=O)O)[C@@H](C)CC` [[Ala^6]MCT-2] (For-MTPMRAINPLMKLIN-OH) here?
The EC50 was 0.064 ± 0.003 µM.

`CC[C@H](C)[C@H](NC(=O)[C@H](CC(C)C)NC(=O)[C@H](CCCCN)NC(=O)[C@H](CCSC)NC(=O)[C@H](CC(C)C)NC(=O)[C@@H]1CCCN1C(=O)[C@H](CC(N)=O)NC(=O)[C@@H](NC(=O)[C@H](CCCCN)NC(=O)[C@H](CCCNC(=N)N)NC(=O)[C@H](CCSC)NC(=O)[C@@H]1CCCN1C(=O)[C@@H](NC(=O)[C@H](CCSC)NC=O)[C@@H](C)O)[C@@H](C)CC)C(=O)O` [MCT-2(1–14)] (For-MTPMRKINPLMKLI-OH) was tested. Which EC50 did it give?
Its EC50 is 0.0967 ± 0.0176 µM.

Which EC50 does the source give for `CC[C@H](C)[C@H](NC(=O)[C@H](CC(C)C)NC(=O)[C@H](CCCCN)NC(=O)[C@H](CCSC)NC(=O)[C@H](C)NC(=O)[C@@H]1CCCN1C(=O)[C@H](CC(N)=O)NC(=O)[C@@H](NC(=O)[C@H](CCCCN)NC(=O)[C@H](CCCNC(=N)N)NC(=O)[C@H](CCSC)NC(=O)[C@@H]1CCCN1C(=O)[C@@H](NC(=O)[C@H](CCSC)NC=O)[C@@H](C)O)[C@@H](C)CC)C(=O)N[C@@H](CC(N)=O)C(=O)O` [[Ala^10]MCT-2] (For-MTPMRKINPAMKLIN-OH) here?
The EC50 was 0.073 ± 0.0133 µM.

With `CSCC[C@H](NC=O)C(=O)N[C@H](C(=O)N1CCC[C@H]1C(=O)N[C@@H](CCSC)C(=O)N[C@@H](CCCNC(=N)N)C(=O)O)[C@@H](C)O` [MCT-2(1–5)] (For-MTPMR-OH) as the molecule, how does the EC50 read?
Its EC50 is 26 µM.

With `CC[C@H](C)[C@H](NC(=O)[C@H](CC(C)C)NC(=O)[C@H](CCCCN)NC(=O)[C@H](CCSC)NC(=O)[C@H](CC(C)C)NC(=O)[C@@H]1CCCN1C(=O)[C@H](CC(N)=O)NC(=O)[C@@H](NC(=O)[C@H](CCCCN)NC(=O)[C@H](CCCNC(=N)N)NC(=O)[C@H](CCSC)NC(=O)[C@@H]1CCCN1C(=O)[C@H](C)NC(=O)[C@H](CCSC)NC=O)[C@@H](C)CC)C(=O)N[C@@H](CC(N)=O)C(=O)O` [[Ala^2]MCT-2] (For-MAPMRKINPLMKLIN-OH) as the molecule, how does the EC50 read?
Its EC50 is 0.00061 ± 7e-05 µM.

`CC[C@H](C)[C@H](NC(=O)[C@H](CCCCN)NC(=O)[C@H](CCCNC(=N)N)NC(=O)[C@H](CCSC)NC(=O)[C@@H]1CCCN1C(=O)[C@@H](NC(=O)[C@H](CCSC)NC=O)[C@@H](C)O)C(=O)O` [MCT-2(1–7)] (For-MTPMRKI-OH) was tested. Which EC50 did it give?
Its EC50 is 35.5 µM.

How did the EC50 turn out when `CC[C@H](C)[C@H](NC(=O)[C@H](C)NC(=O)[C@H](CCCCN)NC(=O)[C@H](CCSC)NC(=O)[C@H](CC(C)C)NC(=O)[C@@H]1CCCN1C(=O)[C@H](CC(N)=O)NC(=O)[C@@H](NC(=O)[C@H](CCCCN)NC(=O)[C@H](CCCNC(=N)N)NC(=O)[C@H](CCSC)NC(=O)[C@@H]1CCCN1C(=O)[C@@H](NC(=O)[C@H](CCSC)NC=O)[C@@H](C)O)[C@@H](C)CC)C(=O)N[C@@H](CC(N)=O)C(=O)O` [[Ala^13]MCT-2] (For-MTPMRKINPLMKAIN-OH) was run?
The EC50 was 0.0837 ± 0.00354 µM.

With `CC[C@H](C)[C@H](NC(=O)[C@H](CCCCN)NC(=O)[C@H](CCCNC(=N)N)NC(=O)[C@H](CCSC)NC(=O)[C@@H]1CCCN1C(=O)[C@@H](NC(=O)[C@H](CCSC)NC=O)[C@@H](C)O)C(=O)N[C@@H](CC(N)=O)C(=O)N1CCC[C@H]1C(=O)N[C@@H](CC(C)C)C(=O)N[C@@H](CCSC)C(=O)N[C@@H](CCCCN)C(=O)N[C@@H](CC(C)C)C(=O)O` [MCT-2(1–13)] (For-MTPMRKINPLMKL-OH) as the molecule, how does the EC50 read?
Its EC50 is 0.186 ± 0.0336 µM.

Which EC50 does the source give for `CC[C@H](C)[C@H](NC(=O)[C@H](CCCCN)NC(=O)[C@H](CCCNC(=N)N)NC(=O)[C@H](CCSC)NC(=O)[C@@H]1CCCN1C(=O)[C@@H](NC(=O)[C@H](CCSC)NC=O)[C@@H](C)O)C(=O)N[C@@H](CC(N)=O)C(=O)O` [MCT-2(1–8)] (For-MTPMRKIN-OH) here?
The EC50 was 41.3 µM.

Which EC50 does the source give for `CC[C@H](C)[C@H](NC(=O)[C@H](CCCCN)NC(=O)[C@H](CCCNC(=N)N)NC(=O)[C@H](CCSC)NC(=O)[C@@H]1CCCN1C(=O)[C@@H](NC(=O)[C@H](CCSC)NC=O)[C@@H](C)O)C(=O)N[C@@H](CC(N)=O)C(=O)N1CCC[C@H]1C(=O)N[C@@H](CC(C)C)C(=O)N[C@@H](CCSC)C(=O)N[C@@H](CCCCN)C(=O)N[C@@H](CC(C)C)C(=O)N[C@@H](C)C(=O)N[C@@H](CC(N)=O)C(=O)O` [[Ala^14]MCT-2] (For-MTPMRKINPLMKLAN-OH) here?
Its EC50 is 0.0767 ± 0.0119 µM.

How did the EC50 turn out when `CSCC[C@H](NC=O)C(=O)N[C@H](C(=O)N1CCC[C@H]1C(=O)N[C@@H](CCSC)C(=O)N[C@@H](CCCNC(=N)N)C(=O)N[C@@H](CCCCN)C(=O)O)[C@@H](C)O` [MCT-2(1–6)] (For-MTPMRK-OH) was run?
The EC50 was 203 µM.

With `CC[C@H](C)[C@H](NC(=O)[C@H](CC(C)C)NC(=O)[C@H](CCCCN)NC(=O)[C@H](CCSC)NC(=O)[C@H](CC(C)C)NC(=O)[C@@H]1CCCN1C(=O)[C@H](CC(N)=O)NC(=O)[C@@H](NC(=O)[C@H](CCCCN)NC(=O)[C@H](CCCNC(=N)N)NC(=O)[C@H](CCSC)NC(=O)[C@H](C)NC(=O)[C@@H](NC(=O)[C@H](CCSC)NC=O)[C@@H](C)O)[C@@H](C)CC)C(=O)N[C@@H](CC(N)=O)C(=O)O` [[Ala^3]MCT-2] (For-MTAMRKINPLMKLIN-OH) as the molecule, how does the EC50 read?
The EC50 was 0.0163 ± 0.00029 µM.

For MTPMRKINPLMKLIN [Des-N-formyl MCT-2], which EC50 is on record?
The EC50 was over 1000 µM.

For `CC[C@H](C)[C@H](NC(=O)[C@H](CC(C)C)NC(=O)[C@H](CCCCN)NC(=O)[C@H](CCSC)NC(=O)[C@H](CC(C)C)NC(=O)[C@@H]1CCCN1C(=O)[C@H](CC(N)=O)NC(=O)[C@H](C)NC(=O)[C@H](CCCCN)NC(=O)[C@H](CCCNC(=N)N)NC(=O)[C@H](CCSC)NC(=O)[C@@H]1CCCN1C(=O)[C@@H](NC(=O)[C@H](CCSC)NC=O)[C@@H](C)O)C(=O)N[C@@H](CC(N)=O)C(=O)O` [[Ala^7]MCT-2] (For-MTPMRKANPLMKLIN-OH), which EC50 is on record?
The EC50 was 0.0947 ± 0.00321 µM.

`CC[C@H](C)[C@H](NC(=O)[C@H](CCCCN)NC(=O)[C@H](CCCNC(=N)N)NC(=O)[C@H](CCSC)NC(=O)[C@@H]1CCCN1C(=O)[C@@H](NC(=O)[C@H](CCSC)NC=O)[C@@H](C)O)C(=O)N[C@@H](CC(N)=O)C(=O)N1CCC[C@H]1C(=O)N[C@@H](CC(C)C)C(=O)N[C@@H](CCSC)C(=O)N[C@@H](CCCCN)C(=O)O` [MCT-2(1–12)] (For-MTPMRKINPLMK-OH) was tested. Which EC50 did it give?
Its EC50 is 0.633 ± 0.153 µM.

`CC[C@H](C)[C@H](NC(=O)[C@H](CC(C)C)NC(=O)[C@H](CCCCN)NC(=O)[C@H](CCSC)NC(=O)[C@H](CC(C)C)NC(=O)[C@@H]1CCCN1C(=O)[C@H](CC(N)=O)NC(=O)[C@@H](NC(=O)[C@H](CCCCN)NC(=O)[C@H](CCCNC(=N)N)NC(=O)[C@H](CCSC)NC(=O)[C@@H]1CCCN1C(=O)[C@@H](NC(=O)[C@H](CCSC)NC=O)[C@@H](C)O)[C@@H](C)CC)C(=O)N[C@@H](C)C(=O)O` [[Ala^15]MCT-2] (For-MTPMRKINPLMKLIA-OH) was tested. Which EC50 did it give?
Its EC50 is 0.0293 ± 0.00149 µM.

How did the EC50 turn out when `CC[C@H](C)[C@H](NC(=O)[C@H](CC(C)C)NC(=O)[C@H](CCCCN)NC(=O)[C@H](CCSC)NC(=O)[C@H](CC(C)C)NC(=O)[C@@H]1CCCN1C(=O)[C@H](CC(N)=O)NC(=O)[C@@H](NC(=O)[C@H](CCCCN)NC(=O)[C@H](CCCNC(=N)N)NC(=O)[C@H](C)NC(=O)[C@@H]1CCCN1C(=O)[C@@H](NC(=O)[C@H](CCSC)NC=O)[C@@H](C)O)[C@@H](C)CC)C(=O)N[C@@H](CC(N)=O)C(=O)O` [[Ala^4]MCT-2] (For-MTPARKINPLMKLIN-OH) was run?
The EC50 was 0.068 ± 0.00265 µM.
